What was measured:
GFP-PKR1 = molecular target: T1, GFP-PKR1 (Homo sapiens, UniProt Q8TCW9); experiment: PKR1 internalization in CHO-K1 cells transfected with GFP-PKR1; assay type: cell-based; conditions: CHO-K1 cells expressing GFP-PKR1, 48h after transfection, 37°C, 20 min imaging
T1 construct: expressed in transfected cells; host or cells: CHO-K1 cells, transient transfection with Lipofectamine2000
Description: The capacity of agonist compounds to induce internalization of PKR1 was assessed. Therefore, CHO-K1 cells transfected with a plasmid encoding GFP-PKR1 (Green Fluorescent Protein-PKR1), in the presence of Lipofectamine2000 (Invitrogen), were used. Cells were stimulated, 48h after transfection, with or without agonist compound, at 37°C. GFP is a fluorescent protein fusion (26.9 kDa) which has a major excitation peak at a wavelength of 396 nm and a minor one at 472 nm. Its emission peak is at 504 nm which is in the lower green portion of the visible spectrum. Fluorescence allowed tracking the localization of PKR1 after stimulation by the agonist (membrane or subcellular). Cells were seeded in glass-bottom coated with polyL-lysine and receptor studies were performed in the presence of various PKR1-ligands. Samples were observed under a Leica confocal microscope (SP2 AOBS MP) with objective 63× at 37°C. Images were automatically recorded during 20 min, with increasing time intervals to avoid bleaching effects because of repetitive scanning. Reconstituted videos contained 42 images and lasted 2 second.

[1] = test system: Coronary endothelial cells (H5V cells); experiment: In vitro angiogenesis, tube-like formation on Matrigel; assay type: cell-based; conditions: serum free medium, 24h
Description: Coronary endothelial cells (H5V cells) were maintained in DMEM supplemented with 10% heat inactivated Fetal Calf Serum (FCS), glutamine (1mM) under 5% CO2 at 37°C.
In order to evaluate the potential angiogenic activity of the non peptide PKR1 agonists, the test of Growth Factor Reduced Matrigel (GFR Matrigel) 24 well plate was performed. Matrigel leads to the differentiation of many cell types and induces the formation and organization of endothelial cells into capillary tubules. Twenty-four-well culture plates were coated with Matrigel and endothelial cells (H5V) were trypsin-harvested and seeded onto the coated plates at 10^5 cells per well in the serum free assay medium with PKR1 agonists, IS1 and prokineticin-2, and incubated at 37°C for 24h. Tube formation as two dimensional branched structures were observed using an inverted phase contrast microscope (Zeiss), and the number of branching points were quantified in per well from each sample. Each experiment was repeated at least three times. Images were captured at a magnification of X10 with a digital microscope camera system (Urayama K et al., 2007).

PKR1 = experiment: Measurement of intracellular calcium in CHO-K1-PKR1 cells (Fluo 4-AM, confocal microscope); assay type: cell-based; conditions: CHO-K1 cells infected with adenovirus carrying PKR1 cDNA, 48h after infection, 37°C
Description: CHO-K1 (Chinese Hamster Ovary) cells were infected with an adenovirus carrying PKR1 cDNA. Cells were then stimulated, 48h after infection, with or without IS1 agonists, at 37°C.
Calcium imaging was conducted essentially as previously described (Horinouchi et al., 2007) In brief, Intracellular free calcium [Ca^2+]i was measured with the fluorescent Ca^2+ indicator dye Fluo 4-AM, the membrane-permeant acetoxymethyl ester form of Fluo 4 (Invitrogen). Changes in [Ca^2+]i were determined from variations in the fluorescence intensity of Fluo 4-AM. Briefly, trypsinized CHO-K1-PKR1 cells were seeded onto glass bottom culture dishes (MatTek, MA, USA) for 24 h. […] The fluorescence in the cells was excited at a wavelength of 488 nm and a series of images (total exposure time: 300 s) were acquired at 0.5s intervals at emission wavelength 518 nm. Data are presented as the fluorescence intensity of 3 randomly chosen cells within a randomly selected 40× field. To evaluate the effect of IS1 compound on [Ca^2+]i in CHO-K-PKR1, the maximum change in fluorescence intensity upon addition of IS1 was measured and normalized to the baseline fluorescence obtained before IS 1 addition.

cEPPC = experiment: Cardiomyocyte differentiation of cEPPC (contractility by time lapse microscopy, troponin immunostaining); assay type: cell-based, C57BL/B6 mice; conditions: beta adrenergic stimuli, isoproterenol 25 nM
Description: Hearts were removed from P1 neonate C57BL/B6 mice or PKR1 null mutant mice, cut into pieces (approximately 1 mm^3), rinsed in PBS to remove excess blood and plated onto 0.1 % gelatin petri dish in DMEM containing GlutaMax, 4.5 g /L glucose, penicillin, streptomycin and 15 % fetal calf serum. Cultures were maintained with minimum disturbance to allow explants to adhere. All cells were maintained at 37°C in a humidified air 5% CO2 atmosphere. After 4 days explants were removed and cells were gently washed and fresh medium with DMEM containing GlutaMax, 4.5 g /L glucose, penicillin, streptomycin and 10 % fetal calf serum serum was added. The cells were cultured during 10 days and trypsinized for experimentation.
For cardiomyogenesis, cells were plated at 2x10^4 onto 1% gelatin coated culture chamber in DMEM containing GlutaMax, 4.5 g /L glucose, penicillin, streptomycin and 10 % fetal calf serum. The cells were maintained in culture during six days and medium were change every 2 days. After 6 days, cardiomyocyte differentiation can be induced using culture medium supplemented with 1µM dexamethasone, 50µg/ml ascorbic acid, 10mM glycerophosphate without or with 10 nM of prokineticin-2. The medium was change every 2 days during 36 days. […]
Cells were fixed in 3,7% formaldehyde at 4°C 1 hours. […] The immunofluorescence was detected by Leica TCSNT fluorescent microscope.

T1 sequence (Q8TCW9 whole entry): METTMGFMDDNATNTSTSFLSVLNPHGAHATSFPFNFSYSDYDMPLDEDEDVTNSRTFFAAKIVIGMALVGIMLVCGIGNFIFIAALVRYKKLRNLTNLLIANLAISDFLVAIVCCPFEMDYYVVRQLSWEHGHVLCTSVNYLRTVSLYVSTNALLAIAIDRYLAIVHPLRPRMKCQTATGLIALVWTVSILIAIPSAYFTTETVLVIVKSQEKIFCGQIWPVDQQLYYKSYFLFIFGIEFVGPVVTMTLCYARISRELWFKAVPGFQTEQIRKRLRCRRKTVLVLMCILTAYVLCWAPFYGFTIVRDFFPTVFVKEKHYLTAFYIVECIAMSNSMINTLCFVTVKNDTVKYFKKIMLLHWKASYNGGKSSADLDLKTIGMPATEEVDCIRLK

For `O=C(NCc1cccnc1)/C(=C\c1ccco1)NC(=O)c1ccccc1` [IS1], the PKR1 internalization (GFP-PKR1) was “specifically interacts with PKR1 and induces its internalization”, the “in vitro angiogenesis (tube-like formation of the endothelial cells on Matrigel)” value [1] was “Induction of in vitro angiogenesis” and the “activation of PKR1 signalling pathway (intracellular calcium release)” value (PKR1) was “able to activate the PKR1 signalling pathway”.
With `CC(C)NCC(O)c1ccc(O)c(O)c1` (stereo not shown) [isoproterenol, Isoproterenol] the “beating frequence of cardiomyocytes induced from cEPPC” value (cEPPC) was “beating frequence is increased”.
